Earlier results on one compound are cited in patent US20250288650A1, “Therapeutic Regimens and Methods for Reducing Body Weight and/or Serum Lipids using a GLP-1R and GCGR Agonist” (Spitfire Pharma LLC, priority 2024, published 2025).

The conditions of data set [1]: 6 weeks.
The conditions of data set [2]: over 26 weeks of administration.

Turning to `CCCCCCCCCCCCCCCC(=O)N[C@@H](CCC(=O)NCCCC[C@H](NC(=O)[C@H](CC(=O)O)NC(=O)[C@H](CO)NC(=O)[C@@H](NC(=O)[C@H](Cc1ccccc1)NC(=O)[C@@H](NC(=O)CNC(=O)[C@H](CCC(N)=O)NC(=O)[C@H](CO)NC(=O)[C@@H](N)Cc1c[nH]cn1)[C@@H](C)O)[C@@H](C)O)C(=O)N[C@@H](CO)C(=O)N[C@@H](CCC(=O)O)C(=O)N[C@@H](Cc1ccc(O)cc1)C(=O)N[C@@H](CC(C)C)C(=O)N[C@@H](CC(=O)O)C(=O)N[C@@H](CO)C(=O)N[C@@H](CCC(=O)O)C(=O)N[C@@H](CCCNC(=N)N)C(=O)N[C@@H](C)C(=O)N[C@@H](CCCNC(=N)N)C(=O)N[C@@H](CC(=O)O)C(=O)N[C@@H](Cc1ccccc1)C(=O)N[C@H](C(=O)N[C@@H](C)C(=O)N[C@@H](Cc1c[nH]c2ccccc12)C(=O)N[C@@H](CC(C)C)C(=O)N[C@@H](CCC(=O)O)C(=O)N[C@@H](C)C(=O)NCC(=O)NCC(=O)O)C(C)C)C(=O)O` [cotadutide], the “reduction in liver fat content” value in data set [1] is recorded as 39%. Besides, the “degree of weight loss” value in data set [2] is on record as 5.4%.
